# Assay results taken from PubChem BioAssay (NCI).
#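 1) Cells in 96-well plates. 2) Compound, 48 h, 5 concentrations. 3) Linear interpolation between surrounding doses. 4) Unreached endpoint = highest concentration. The concentration for 50% growth inhibition is given as GI50. TGI: total growth inhibition.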
# Experiments:
# Assay in all cases: growth of human tumour cells (NCI), 48 h
# TK-10 renal = tested on: TK-10 renal
# SF-268 CNS = tested on: SF-268 CNS
# NCI-H522 lung = tested on: NCI-H522 lung
# NCI-H460 lung = tested on: NCI-H460 lung
# OVCAR-8 ovarian = tested on: OVCAR-8 ovarian
# SN12C renal = tested on: SN12C renal
# UACC-257 melanoma = tested on: UACC-257 melanoma
# CCRF-CEM leukemia = tested on: CCRF-CEM leukemia
# A549 NSCLC = tested on: A549 NSCLC
# NCI-H226 lung = tested on: NCI-H226 lung
# U251 CNS = tested on: U251 CNS
# PC-3 prostate = tested on: PC-3 prostate
# SK-MEL-28 melanoma = tested on: SK-MEL-28 melanoma
# SK-MEL-5 melanoma = tested on: SK-MEL-5 melanoma
# A498 renal = tested on: A498 renal
# HL-60(TB) leukemia = tested on: HL-60(TB) leukemia
# UACC-62 melanoma = tested on: UACC-62 melanoma
# LOX IMVI melanoma = tested on: LOX IMVI melanoma
# MDA-MB-231 breast = tested on: MDA-MB-231 breast
# SF-539 CNS = tested on: SF-539 CNS
# SW-620 colon = tested on: SW-620 colon
# M14 melanoma = tested on: M14 melanoma
# NCI/ADR-RES ovarian = tested on: NCI/ADR-RES ovarian
# IGROV1 ovarian = tested on: IGROV1 ovarian
# MDA-MB-435 = tested on: MDA-MB-435
# T-47D breast = tested on: T-47D breast
# CAKI-1 renal = tested on: CAKI-1 renal
# NCI-H23 lung = tested on: NCI-H23 lung
# DU-145 prostate = tested on: DU-145 prostate
# KM12 colon = tested on: KM12 colon
# MCF7 breast = tested on: MCF7 breast
# OVCAR-3 ovarian = tested on: OVCAR-3 ovarian
# MALME-3M melanoma = tested on: MALME-3M melanoma
# SNB-19 CNS = tested on: SNB-19 CNS
# SF-295 CNS = tested on: SF-295 CNS
# HCT-116 colon = tested on: HCT-116 colon
# K-562 leukemia = tested on: K-562 leukemia
# HS 578T breast = tested on: HS 578T breast
# UO-31 renal = tested on: UO-31 renal
# SK-OV-3 ovarian = tested on: SK-OV-3 ovarian
# SK-MEL-2 melanoma = tested on: SK-MEL-2 melanoma
# HOP-62 NSCLC = tested on: HOP-62 NSCLC
# RPMI-8226 leukemia = tested on: RPMI-8226 leukemia
# OVCAR-4 ovarian = tested on: OVCAR-4 ovarian
# RXF 393 renal = tested on: RXF 393 renal
# MOLT-4 leukemia = tested on: MOLT-4 leukemia
# SR leukemia = tested on: SR leukemia
# 786-0 renal = tested on: 786-0 renal
# COLO 205 colon = tested on: COLO 205 colon
smiles,measurement,setting,value
Cc1ccc(NC2=C(Cl)C(=O)N(Cc3ccc(Cl)cc3)C2=O)cc1O,GI50,TK-10 renal,15.2 µM
same,TGI,TK-10 renal,32.4 µM
same,GI50,SF-268 CNS,5.07 µM
same,TGI,SF-268 CNS,21.2 µM
same,GI50,NCI-H522 lung,11.6 µM
same,TGI,NCI-H522 lung,34.3 µM
same,GI50,NCI-H460 lung,4.29 µM
same,TGI,NCI-H460 lung,20.5 µM
same,GI50,OVCAR-8 ovarian,7.1 µM
same,TGI,OVCAR-8 ovarian,38.6 µM
same,GI50,SN12C renal,13.3 µM
same,TGI,SN12C renal,30.5 µM
same,GI50,UACC-257 melanoma,13 µM
same,TGI,UACC-257 melanoma,28.7 µM
same,GI50,CCRF-CEM leukemia,4.64 µM
same,TGI,CCRF-CEM leukemia,60 µM
same,GI50,A549 NSCLC,10.5 µM
same,TGI,A549 NSCLC,29.2 µM
same,GI50,NCI-H226 lung,2.55 µM
same,TGI,NCI-H226 lung,13.3 µM
same,GI50,U251 CNS,4.88 µM
same,TGI,U251 CNS,> 100 µM
same,GI50,PC-3 prostate,5.5 µM
same,TGI,PC-3 prostate,35.6 µM
same,GI50,SK-MEL-28 melanoma,14.8 µM
same,TGI,SK-MEL-28 melanoma,44.4 µM
same,GI50,SK-MEL-5 melanoma,12.6 µM
same,TGI,SK-MEL-5 melanoma,28 µM
same,GI50,A498 renal,11.9 µM
same,TGI,A498 renal,25.9 µM
same,GI50,HL-60(TB) leukemia,54.8 µM
same,TGI,HL-60(TB) leukemia,> 100 µM
same,GI50,UACC-62 melanoma,17.5 µM
same,TGI,UACC-62 melanoma,39.4 µM
same,GI50,LOX IMVI melanoma,4.09 µM
same,TGI,LOX IMVI melanoma,32.1 µM
same,GI50,MDA-MB-231 breast,9.75 µM
same,TGI,MDA-MB-231 breast,32.4 µM
same,GI50,SF-539 CNS,3.1 µM
same,TGI,SF-539 CNS,16.2 µM
same,GI50,SW-620 colon,7.76 µM
same,TGI,SW-620 colon,66.6 µM
same,GI50,M14 melanoma,13.8 µM
same,TGI,M14 melanoma,38 µM
same,GI50,NCI/ADR-RES ovarian,9.24 µM
same,TGI,NCI/ADR-RES ovarian,37.8 µM
same,GI50,IGROV1 ovarian,11.2 µM
same,TGI,IGROV1 ovarian,33 µM
same,GI50,MDA-MB-435,4.45 µM
same,TGI,MDA-MB-435,26.2 µM
same,GI50,T-47D breast,10.7 µM
same,TGI,T-47D breast,42.6 µM
same,GI50,CAKI-1 renal,2.79 µM
same,TGI,CAKI-1 renal,18 µM
same,GI50,NCI-H23 lung,5.56 µM
same,TGI,NCI-H23 lung,23.7 µM
same,GI50,DU-145 prostate,14.9 µM
same,TGI,DU-145 prostate,40.6 µM
same,GI50,KM12 colon,13.8 µM
same,TGI,KM12 colon,39.6 µM
same,GI50,MCF7 breast,6.73 µM
same,TGI,MCF7 breast,27.5 µM
same,GI50,OVCAR-3 ovarian,8.88 µM
same,TGI,OVCAR-3 ovarian,38.5 µM
same,GI50,MALME-3M melanoma,5.23 µM
same,TGI,MALME-3M melanoma,26.9 µM
same,GI50,SNB-19 CNS,10.8 µM
same,TGI,SNB-19 CNS,39 µM
same,GI50,SF-295 CNS,4.04 µM
same,TGI,SF-295 CNS,19.8 µM
same,GI50,HCT-116 colon,6.57 µM
same,TGI,HCT-116 colon,29 µM
same,GI50,K-562 leukemia,61.8 µM
same,TGI,K-562 leukemia,> 100 µM
same,GI50,HS 578T breast,16.4 µM
same,TGI,HS 578T breast,75.8 µM
same,GI50,UO-31 renal,17.6 µM
same,TGI,UO-31 renal,69 µM
same,GI50,SK-OV-3 ovarian,10.9 µM
same,TGI,SK-OV-3 ovarian,32.3 µM
same,GI50,SK-MEL-2 melanoma,10.7 µM
same,TGI,SK-MEL-2 melanoma,26.7 µM
same,GI50,HOP-62 NSCLC,9.99 µM
same,TGI,HOP-62 NSCLC,26.4 µM
same,GI50,RPMI-8226 leukemia,2.04 µM
same,TGI,RPMI-8226 leukemia,14.8 µM
same,GI50,OVCAR-4 ovarian,25.4 µM
same,TGI,OVCAR-4 ovarian,> 100 µM
same,GI50,RXF 393 renal,10.4 µM
same,TGI,RXF 393 renal,36.4 µM
same,GI50,MOLT-4 leukemia,> 100 µM
same,TGI,MOLT-4 leukemia,> 100 µM
same,GI50,SR leukemia,71.4 µM
same,TGI,SR leukemia,> 100 µM
same,GI50,786-0 renal,0.753 µM
same,TGI,786-0 renal,18.8 µM
same,GI50,COLO 205 colon,10.7 µM
same,TGI,COLO 205 colon,41 µM
